Results published in patent US20230110378A1, “MONOBACTAM COMPOUND AND USE THEREOF” (EVOPOINT BIOSCIENCES CO., LTD., priority 2019, published 2023).
In brackets after ≈: the same amount, converted by molar mass.

Assays:
[1] = tested on: Klebsiella pneumoniae HDBKP 30006; test: Minimum inhibitory concentration (broth microdilution, CLSI); format: cell-based; settings: HDBKP30006
Description: (§1) 103 bacterial strains used for the minimum inhibitory concentration test were frozen in a −80° C. ULT freezer and thawed 2 days before use. A small amount of frozen microorganism bacteria were scraped using a sterile inoculating loop, streaked onto a suitable solid culture dish for inoculation, and then cultured for about 20 h at 35 t 2° C. in a normal incubator. • Proteus mirabilis HDBPM 40: MA, normal atmospheric environment • The remaining 102 strains of bacteria: TSA, normal atmospheric environment
(§2) 5-10 colonies with similar morphology were picked from the culture dish using a sterile inoculating loop and then re-streaked onto a corresponding solid culture dish. Then the dish was incubated in a normal incubator at 35 t 2° C. for about 20 h.
(§3) 5-10 single microbial colonies were picked from the solid culture dish, resuspended in 500 μL of sterile normal saline (0.9% NaCl), and adjusted to an OD600 of about 0.15 with a spectrophotometer.
(§4) The bacteria were then diluted 300-fold with 1.02×CAMHB to an inoculation concentration of 2×10^5 CFU/mL.
(§5) • There were a total of 3 assay plate patterns, one of which was used for each assay. • 8 rows of the assay plate (rows A-H) were for 8 test compounds, respectively. The highest test concentration of the compounds was 16, 32 or 64 μg/mL, and each compound was diluted 2-fold. • Growth control (GC): a medium containing microbial inoculum (1.02×CAMHB) and dimethylsulfoxide (DMSO) but no compound.
(§6) The test and reference compounds were dissolved in DMSO or H2O to prepare 6.4 mg/mL stock solutions. The stock solutions were diluted to prepare standby solutions with certain concentrations, and the volumes of the standby solutions were determined according to the experimental design. Corresponding volumes of the standby solutions were transferred to the starting wells of a dilution plate (A1-H1), and half the starting-well volume of DMSO to the other wells. Each compound was diluted 2-fold sequentially from column 1 to column 11 (e.g., transferring 30 μL of DMSO to columns 2-12 first, then pipetting 30 μL of the compounds from column 1 to column 2 and mixing them well, then pipetting 30 μL of the compounds from column 2 to column 3 and mixing them well, then pipetting 30 μL of the compounds from column 3 to column 4 and mixing them well, and so on to column 11).
(§7) 1 or 2 μL of the compounds and DMSO were transferred from the compound plate to corresponding wells of the assay plates.
(§8) 98 μL of corresponding bacterial inocula were added to the assay plates.
(§9) After addition, the assay plates were covered with sterile covers. The mixtures in the assay plates were centrifuged in a centrifuge at 800 rpm for 30 s, mixed well on a microplate shaker at 400 rpm for 1 min, and incubated in a normal incubator at 35 t 2° C. for 20-24 h.
(§10) The assay plates were placed on a plate reading device, and the speculum was adjusted to observe and record the growth condition of bacteria in each well. In the mean time, each assay plate was photographed with QCount system.
(§11) The minimum inhibitory concentration of each compound was recorded by reference to guidelines from the Clinical and Laboratory Standards Institute.
(§12) The minimum inhibitory concentrations of the compounds against experimental strains were tested in this study by reference to the medium microdilution method as indicated by the Clinical and Laboratory Standards Institute. Compounds were diluted two-fold in 96-well plates from the highest detection concentration of 16, 32 or 64 μg/mL. The bacterial inocula in the assay plates were thawed from corresponding medium plates and diluted in 1.02×CAMHB, while growth controls (GC wells) were set up in the assay plates. The minimum inhibitory concentration of each compound against different bacteria was observed and recorded after the assay plates were incubated in a normal incubator at 35 t 2° C. for about 20 h. The minimum inhibitory concentration values for the different compounds are listed in the list below.

[2] = tested on: Enterobacter cloacae HDBECL 30030; test: as above; format: cell-based; settings: HDBECL30030
Description: as §1, §2, §3, §4, §5, §6, §7, §8, §9, §10, §11, §12

[3] = tested on: Pseudomonas aeruginosa HDBPA 5679; test: as above; format: cell-based; settings: HDBPA5679
Description: as §1, §2, §3, §4, §5, §6, §7, §8, §9, §10, §11, §12

[4] = tested on: Escherichia coli HDBEC 30016; test: as above; format: cell-based; settings: HDBEC30016
Description: as §1, §2, §3, §4, §5, §6, §7, §8, §9, §10, §11, §12

[5] = tested on: Escherichia coli HDBEC 30048; test: as above; format: cell-based; settings: HDBEC30048
Description: as §1, §2, §3, §4, §5, §6, §7, §8, §9, §10, §11, §12

[6] = tested on: Klebsiella pneumoniae HDBKP 9153; test: as above; format: cell-based; settings: HDBKP9153
Description: as §1, §2, §3, §4, §5, §6, §7, §8, §9, §10, §11, §12

[7] = tested on: Escherichia coli HDBEC 30008; test: as above; format: cell-based; settings: HDBEC30008
Description: as §1, §2, §3, §4, §5, §6, §7, §8, §9, §10, §11, §12

[8] = tested on: metallo-β-lactamase-expressing Acinetobacter baumannii strain ABA-0003YK; test: as above; format: cell-based; settings: read-out: MIC A. baumannii ABA-0003YK
Description: as §1, §2, §3, §4, §5, §6, §7, §8, §9, §10, §11, §12

[9] = tested on: Klebsiella pneumoniae HDBKP 9249; test: as above; format: cell-based; settings: HDBKP9249
Description: as §1, §2, §3, §4, §5, §6, §7, §8, §9, §10, §11, §12

[10] = tested on: Proteus mirabilis HDBPM 40; test: as above; format: cell-based; settings: HDBPM40
Description: as §1, §2, §3, §4, §5, §6, §7, §8, §9, §10, §11, §12

[11] = Pharmacokinetic evaluation of compounds in mice (tail vein injection); format: in vivo, Male CD-1 (ICR) mice; settings: CD-1 (ICR), mouse, male CD-1 mice, intravenous injection, dose 5 mg/kg, plasma
Description: Male CD-1 (ICR) mice were purchased and then acclimatized in this laboratory for at least 3 days. […] Blood samples were collected from the saphenous vein at 0.0833 h, 0.25 h, 0.5 h, 1 h, 2 h, 4 h, 8 h and 24 h following the tail vein injection administration. The volume of blood collection at each time point of the blood collection was about 30 μL. The blood samples were placed in centrifuge tubes containing anticoagulant EDTA-K2 and centrifuged at 3,200 g at 4° C. for 10 min, and then the upper plasma samples were collected and preserved in a freezer at −70±10° C. for later tests.
1) To 1.5 mL centrifuge tubes were added a 6 μL aliquot of an unknown sample, a standard curve, a quality control, a dilution quality control, single blank and double blank samples.
2) Each sample (except for the double blank sample) was treated with 120 μL of IS1-containing precipitant (the double blank sample was treated with 120 μL of pure MeOH for precipitation), and the mixtures were well mixed (for at least 15 s) using a vortexer and centrifuged at 12,000 g at 4° C. for 15 min.
3) 60 μL of the supernatants were transferred to a 96-well plate and centrifuged at 4° C. at 3220 g for 5 min, and 6 p L of the supernatants were injected for LC-MS/MS quantitative analysis.
1) The 1 h-plasma samples from the 3 mice were diluted 10-fold: 2 p L of the samples were added to 18 p L of blank matrix.
2) The 0.0833 h to 0.5 h-plasma samples from the 3 mice were diluted 100-fold: 18 μL of blank matrix was added to 2 p L of the samples to obtain 10-fold diluted samples. 2 μL of the 10-fold diluted samples were added to 18 p L of blank matrix to obtain 100-fold diluted analysis samples.
LC-MS/MS analysis conditions: chromatography column: ACQUITY UPLC HSS T3 (2.1×50 mm, 1.8 μm); column temperature: 50° C.; mobile phase A: a 0.1% aqueous solution of formic acid; mobile phase B: a 0.1% solution of formic acid in acetonitrile; flowrate: 0.65 mL/min. Internal standard: verapamil (100 ng/mL)
The concentration of the compounds in plasma was measured by LC-MS/MS (LC-MS/MS-AK_Q-Trap 6500). The pharmacokinetic software WinNonlin [version: Phoenix™ WinNonlin®6.3, manufacturer: Pharsight Corporation] was used to calculate pharmacokinetic parameters (V-Noncompartmental model 201).

Compound: CC(C)(O/N=C(\C(=O)N[C@@H]1C(=O)N(S(=O)(=O)O)[C@@H]1CNC(=O)c1cc([C@@H]2CCN(C(=O)c3ccc(O)c(O)c3Cl)C2)no1)c1csc(N)n1)C(=O)O [Compound I-27]
- MIC [1]: 4 to 8 µg/mL (≈ 5.09 to 10.2 µM)
- MIC [2]: < 4 µg/mL
- MIC [3]: < 4 µg/mL
- MIC [4]: < 4 µg/mL
- MIC [5]: < 4 µg/mL
- MIC [6]: < 4 µg/mL
- MIC [7]: < 4 µg/mL
- MIC [8]: < 4 µg/mL
- MIC [9]: 4 to 8 µg/mL (≈ 5.09 to 10.2 µM)
- MIC [10]: < 4 µg/mL

Compound: CC(C)(O/N=C(\C(=O)N[C@@H]1C(=O)N(S(=O)(=O)O)[C@@H]1CNC(=O)c1cc([C@@H]2CCN(C(=O)c3cc(=O)c(O)cn3O)C2)no1)c1csc(N)n1)C(=O)O [Compound I-7]
- AUC [11]: 4240 ng·h/mL
- clearance [11]: 19.6 mL/min/kg
- half-life ([11]; read-out: T½ (converted)): 16.2 min
- Vd ([11]; read-out: Vss): 0.48 L/kg
- MIC [1]: > 16 µg/mL
- MIC [2]: < 4 µg/mL
- MIC [3]: < 4 µg/mL
- MIC [4]: 4 to 8 µg/mL (≈ 5.21 to 10.4 µM)
- MIC [5]: < 4 µg/mL
- MIC [6]: < 4 µg/mL
- MIC [7]: < 4 µg/mL
- MIC [8]: < 4 µg/mL
- MIC [9]: > 16 µg/mL
- MIC [10]: < 4 µg/mL

Compound: CC(C)(O/N=C(\C(=O)N[C@@H]1C(=O)N(S(=O)(=O)O)[C@@H]1CNC(=O)c1cnc([C@@H]2CCN(C(=O)c3ccc(O)c(O)c3Cl)C2)s1)c1csc(N)n1)C(=O)O [Compound I-30]
- MIC [1]: 4 to 8 µg/mL (≈ 4.99 to 9.98 µM)
- MIC [2]: < 4 µg/mL
- MIC [3]: < 4 µg/mL
- MIC [4]: < 4 µg/mL
- MIC [5]: < 4 µg/mL
- MIC [6]: < 4 µg/mL
- MIC [7]: < 4 µg/mL
- MIC [8]: < 4 µg/mL
- MIC [9]: 4 to 8 µg/mL (≈ 4.99 to 9.98 µM)
- MIC [10]: < 4 µg/mL

Compound: C[C@H]1[C@H](NC(=O)/C(=N\OC(C)(C)C(=O)O)c2csc(N)n2)C(=O)N1S(=O)(=O)O [Aztreonam, reference compound]
- MIC [1]: > 16 µg/mL
- MIC [2]: > 16 µg/mL
- MIC [3]: > 16 µg/mL
- MIC [4]: > 16 µg/mL
- MIC [5]: > 16 µg/mL
- MIC [6]: > 16 µg/mL
- MIC [7]: 8 to 16 µg/mL (≈ 18.4 to 36.7 µM)
- MIC [8]: > 16 µg/mL
- MIC [9]: > 16 µg/mL
- MIC [10]: 8 to 16 µg/mL (≈ 18.4 to 36.7 µM)

Compound: C[n+]1cc(-c2ncc(C(=O)NC[C@@H]3[C@H](NC(=O)/C(=N\OC4(C(=O)O)CC4)c4csc(N)n4)C(=O)N3S(=O)(=O)O)s2)cn1CCCNC(=O)c1ccc(O)c(O)c1Cl [Compound I-28]
- MIC [1]: 4 to 8 µg/mL
- MIC [2]: < 4 µg/mL
- MIC [3]: < 4 µg/mL
- MIC [4]: < 4 µg/mL
- MIC [5]: < 4 µg/mL
- MIC [6]: < 4 µg/mL
- MIC [7]: < 4 µg/mL
- MIC [8]: < 4 µg/mL
- MIC [9]: < 4 µg/mL
- MIC [10]: < 4 µg/mL
